Legend:
Experiment in all cases: standard MIC synergy test with amoxycillin
Type in all cases: cell-based
Settings in all cases: amoxycillin alone, β-Lactamase Inhibitor: None
E. coli JT39 = system: E. coli JT39
Excerpt: (§1) In a standard MIC synergy test, the following data were obtained for the compounds of this invention:-

Kleb. E70 = system: Kleb. E70
Excerpt: as §1

Proteus C889 = system: Proteus C889
Excerpt: as §1

## CC1(C)S[C@@H]2[C@H](NC(=O)[C@H](N)c3ccc(O)cc3)C(=O)N2[C@H]1C(=O)O [amoxycillin]
E. coli JT39
  MIC of amoxycillin (μg/ml) E. coli JT39: 2000 µg/mL
Kleb. E70
  MIC of amoxycillin (μg/ml) Kleb. E70: 500 µg/mL
Proteus C889
  MIC of amoxycillin (μg/ml) Proteus C889: >2000 µg/mL
